Patent publication US5879657A, “Radiolabeled platelet GPIIb/IIIa receptor antagonists as imaging agents for the diagnosis of thromboembolic disorders” (The Dupont Merck Pharmaceutical Company, priority 1994, dated 1999)

What was measured:
thrombus = experiment: Arteriovenous Shunt Model; assay type: in vivo, dogs; details: mean ± SEM; for Arterial Conditions T/B ratio / Venous Conditions T/B ratio: T/B = thrombus/background; for Arterial Conditions Uptake (% id/g) / Venous Conditions Uptake (% id/g): extracorporeal A-V shunt, 1 hr shunt period
Experimental: Arteriovenous Shunt Model: Adult mongrel dogs of either sex (9-13 kg) were anesthetized with pentobarbital sodium (35 mg/kg, i.v.) and ventilated with room air via an endotracheal tube (12 strokes/min,25 ml/kg). For arterial pressure determination, the left carotid artery was cannulated with a saline-filled polyethylene catheter (PE-240) and connected to a Statham pressure transducer (P23ID; Oxnard, Calif.). Mean arterial blood pressure was determined via damping the pulsatile pressure signal. Heart rate was monitored using a cardiotachometer (Biotach, Grass Quincy, Ma.) triggered from a lead II electrocardiogram generated by limb leads. A jugular vein was cannulated (PE-240) for drug administration. The both femoral arteries and femoral veins were cannulated with silicon treated (Sigmacote, Sigma Chemical Co. St Louis, Mo.), saline filled polyethylene tubing (PE-200) and connected with a 5 cm section of silicon treated tubing (PE-240) to form an extracorporeal arterio-venous shunts (A-V). Shunt patency was monitored using a doppler flow system (model VF-1, Crystal Biotech Inc, Hopkinton, Ma.) and flow probe (2-2.3 mm, Titronics Med. Inst., Iowa City, Iowa) placed proximal to the locus of the shunt. All parameters were monitored continuously on a polygraph recorder (model 7D Grass) at a paper speed of […] or 25 mm/sec.
On completion of a 15 min post surgical stabilization period, an occlusive thrombus was formed by the introduction of a thrombogenic surface (4-0 braided silk thread, 5 cm in length, Ethicon Inc., Somerville, N.J.) into the shunt one shunt with the other serving as a control. Two consecutive 1 hr shunt periods were employed with the test agent administered as an infusion over 5 min beginning 5 min before insertion of the thrombogenic surface. At the end of each 1 hr shunt period the silk was carefully removed and weighed and the % incorporation determined via well counting. Thrombus weight was calculated by subtracting the weight of the silk prior to placement from the total weight of the silk on removal from the shunt. Arterial blood was withdrawn prior to the first shunt and every 30 min thereafter for determination of blood clearance, whole blood collagen-induced platelet aggregation, thrombin-induced platelet degranulation (platelet ATP release), prothrombin time and platelet count. Template bleeding time was also performed at 30 min intervals.

venous thrombus = experiment: Canine Deep Vein Thrombosis Model; assay type: in vivo, dogs; details: 1 mCi/Kg, i.v., given at reflow; jugular vein thrombi; 15, 60 and 120 min post-administration
Experimental: Canine Deep Vein Thrombosis Model: This model incorporates the triad of events (hypercoagulatible state, period of stasis, low shear environment) essential for the formation of a venous fibrin-rich actively growing thrombus. The procedure was as follows: Adult mongrel dogs of either sex (9-13 kg) were anesthetized with pentobarbital sodium (35 mg/kg,i.v.) and ventilated with room air via an endotracheal tube (12 strokes/min, 25 ml/kg). For arterial pressure determination, the right femoral artery was cannulated with a saline-filled polyethylene catheter (PE-240) and connected to a Statham pressure transducer (P23ID; Oxnard, Calif.). Mean arterial blood pressure was determined via damping the pulsatile pressure signal. Heart rate was monitored using a cardiotachometer (Biotach, Grass Quincy, Ma.) triggered from a lead II electrocardiogram generated by limb leads. The right femoral vein was cannulated (PE-240) for drug administration. A 5 cm segment of both jugular veins was isolated, freed from fascia and circumscribed with silk suture. A microthermister probe was placed on the vessel which serves as an indirect measure of venous flow. […] The agent was infused during the first 5 min of reflow and the rate of incorporation monitored using gamma scintigraphy.

Substance: Cyclo-((^125 I)D-Tyr-NMeArg-Gly-Asp-Mamb) [Example 8]
- Arterial Conditions T/B ratio (thrombus): 173 ± 22
- Arterial Conditions Uptake (% id/g) (thrombus): 1.81 ± 0.18 % id/g
- Venous Conditions T/B ratio (thrombus): 19 ± 9
- Venous Conditions Uptake (% id/g) (thrombus): 0.25 ± 0.15 % id/g

Substance: Cyclo-(D-Val-NMeArg-Gly-Asp-Mamb([^99m TcO(MA-MAMA)]-5-Aca)) [Example 32]
- Arterial Conditions T/B ratio (thrombus): 102
- Arterial Conditions Uptake (% id/g) (thrombus): 7.4 % id/g
- Venous Conditions T/B ratio (thrombus): 0
- Venous Conditions Uptake (% id/g) (thrombus): 0 % id/g

Substance: Cyclo-(D-Val-NMeArg-Gly-Asp-Mamb([^99m TcO(MeMAG2 gaba)]^- -5-Aca)) [Example 23]
- Arterial Conditions T/B ratio (thrombus): 195 ± 39
- Arterial Conditions Uptake (% id/g) (thrombus): 5.41 ± 0.70 % id/g
- Venous Conditions T/B ratio (thrombus): 7 ± 0.4
- Venous Conditions Uptake (% id/g) (thrombus): 0.21 ± 0.05 % id/g

Substance: Cyclo-(D-Val-NMeArg-Gly-Asp-Mamb([^99m TcO(mapt)]^- -5-Aca)) [Example 19]
- uptake in venous thrombus (typical images, gamma scintigraphy) (venous thrombus): uptake in a rapidly growing venous thrombus
- Arterial Conditions T/B ratio (thrombus): 142 ± 24
- Arterial Conditions Uptake (% id/g) (thrombus): 5.75 ± 1.28 % id/g
- Venous Conditions T/B ratio (thrombus): 13 ± 4
- Venous Conditions Uptake (% id/g) (thrombus): 0.58 ± 0.22 % id/g

Substance: Cyclo-([([^99m TcO(mapt)]^- -5-Aca)D-Lysσ-NMeArg-Gly-Asp-Mamb) [Example 21]
- Arterial Conditions T/B ratio (thrombus): 113 ± 1
- Arterial Conditions Uptake (% id/g) (thrombus): 1.6 ± 0.12 % id/g
- Venous Conditions T/B ratio (thrombus): 4.0 ± 2
- Venous Conditions Uptake (% id/g) (thrombus): 0.06 ± 0.03 % id/g

Substance: Cyclo-([[^99m TcO(MeMAG2 gaba)]^- -D-Lys]-NMeArg-Gly-Asp-Mamb) [Example 22]
- Arterial Conditions T/B ratio (thrombus): 158 ± 5
- Arterial Conditions Uptake (% id/g) (thrombus): 1.28 ± 0.44 % id/g
- Venous Conditions T/B ratio (thrombus): 7 ± 4
- Venous Conditions Uptake (% id/g) (thrombus): 0.045 ± 0.02 % id/g

Substance: Cyclo-([[^99m TcO(mapt)]^- -D-Lys]-NMeArg-Gly-Asp-Mamb) [Example 18]
- Arterial Conditions T/B ratio (thrombus): 147 ± 44
- Arterial Conditions Uptake (% id/g) (thrombus): 0.47 ± 0.12 % id/g
- Venous Conditions T/B ratio (thrombus): 13 ± 3
- Venous Conditions Uptake (% id/g) (thrombus): 0.04 ± .01 % id/g

Substance: Cyclo-([^111 In-DTPA-D-Lys]-NMeArg-Gly-Asp-Mamb) [Example 16]
- Arterial Conditions T/B ratio (thrombus): 128 ± 24
- Arterial Conditions Uptake (% id/g) (thrombus): 0.95 ± 0.29 % id/g
- Venous Conditions T/B ratio (thrombus): 14
- Venous Conditions Uptake (% id/g) (thrombus): 0.08 % id/g

Substance: [(^125 I)N-3-(4-hydroxyphenyl)propionyl]-Cyclo-(D-Lys-NMeArg-Gly-Asp-Mamb) [Example 9]
- Arterial Conditions T/B ratio (thrombus): 44 ± 4
- Arterial Conditions Uptake (% id/g) (thrombus): 2.60 ± .005 % id/g
- Venous Conditions T/B ratio (thrombus): 8 ± 3
- Venous Conditions Uptake (% id/g) (thrombus): 0.45 ± 0.11 % id/g

Substance: ^99m Tc((EDDA)-Cyclo(D-Val-NMeArg-Gly-Asp-Mamb(hydrazino-nicotinyl-5-Aca)) [Example 13]
- Arterial Conditions T/B ratio (thrombus): 163 ± 14
- Arterial Conditions Uptake (% id/g) (thrombus): 8.50 ± 0.20 % id/g
- Venous Conditions T/B ratio (thrombus): 33 ± 27
- Venous Conditions Uptake (% id/g) (thrombus): 1.64 ± 1.32 % id/g

Substance: ^99m Tc(tricine)2 -Cyclo(D-Val-NMeArg-Gly-Asp-Mamb(hydrazino-nicotinyl-5-Aca)) [Example 12]
- uptake in venous thrombus (typical images, gamma scintigraphy) (venous thrombus): uptake in a rapidly growing venous thrombus
- Arterial Conditions T/B ratio (thrombus): 111 ± 6
- Arterial Conditions Uptake (% id/g) (thrombus): 6.15 ± 0.66 % id/g
- Venous Conditions T/B ratio (thrombus): 7.0 ± 2
- Venous Conditions Uptake (% id/g) (thrombus): 0.46 ± 0.19 % id/g

Substance: ^99m TcO(MAMA)-Cyclo-(D-Val-NMeArg-Gly-Asp-Mamb(5-Aca)) [Example 10]
- Arterial Conditions T/B ratio (thrombus): 221 ± 16
- Arterial Conditions Uptake (% id/g) (thrombus): 5.00 ± 0.51 % id/g
- Venous Conditions T/B ratio (thrombus): 7 ± 0.6
- Venous Conditions Uptake (% id/g) (thrombus): 0.16 ± 0.02 % id/g
